These results are taken from US8202879B2, “Quinazoline derivatives having tyrosine kinase inhibitory activity” (Shionogi & Co., Ltd., priority 2005, dated 2012).

The structures appear in SMILES notation. Like-named read-outs stand apart in the source and are kept apart here.

The test system of one test is BT-474. The test is described as follows: In vitro cell proliferation inhibition, WST assay. In kind it is cell-based, human. The settings on record: BT-474 cells, cultured for 3 days, read-out: BT-474 (nM) proliferation inhibitory activity (IC50 value). The method, then: Test of In Vitro Cell Proliferation Inhibition of Test Compound
As a human-derived cancer cell strain, BT-474 was used. Cells were all cultured in a 37° C., 5% CO2 incubator in a medium in which 10% bovine fetal serum (ICN) and 50 units ml penicillin/60 μg/ml streptomycin solution (GIBCO) were added to Dulbecco's Modified Essential Medium (DMEM, Nacalai Tesque, Inc).

In test [1] the test system is NCI-N87 cells (human stomach cancer cell strain). The test is described as follows: in vivo anti-tumor assessment, NCI-N87 cells transplanted into mammary fat pad of nude mouse. The method, then: NCI-N87 cells (human stomach cancer cell strain) were transplanted into a mammary fat pad of a female nude mouse (BALB/cA Jcl-nu/nu, CLEA Japan, Inc) at 5×10^6 cells/mouse (day 0). On day 5, a long diameter and a short diameter of a tumor were measured with a caliper, and mice were divided into groups (N=6) so that a tumor size between groups became equal. A test compound (20, 80 mg/kg) suspended in a 0.5% methylcellulose (MC) solution was orally administered from day 5 on for 15 consecutive days, and the anti-tumor effect was expressed by a ratio (T/C %) of an average value of a tumor size between a compound-administered group (T) and a control (C, 0.5% MC) group on day 20.
Results of in vivo anti-tumor assessment of a compound VIII-11 are shown in Table 54, and results of in vivo anti-tumor assessment of a compound VIII-66 are shown in Table 55.

Another test concerns the target T1, EGFR (Homo sapiens, UniProt P00533).
T1 construct: purchased Carna Biosciences, Inc; host or cells: insect cell expression system
The test is described as follows: Enzyme inhibitory activity on EGFR (time resolution fluorescence, biotinylated poly-Glu-Tyr substrate). In kind it is biochemical. The method, boiled down:
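Insect-cell-expressed EGFR phosphorylated biotinylated poly-Glu-Tyr (4:1) for 60 min at room temperature in TBS with MgCl2, MnCl2, Na3VO4 and BSA. Enzyme 250 ng/ml, substrate 3.125 μg/ml and ATP 125 μM as working solutions. EDTA stop; Eu anti-phosphotyrosine/streptavidin-XL time-resolved fluorescence read; 10-point 4-fold dilutions.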

The target in another test is T2, HER2 (Homo sapiens, UniProt P04626).
T2 construct: purchased Carna Biosciences, Inc; host or cells: insect cell expression system
T2 sequence (P04626 23-1255): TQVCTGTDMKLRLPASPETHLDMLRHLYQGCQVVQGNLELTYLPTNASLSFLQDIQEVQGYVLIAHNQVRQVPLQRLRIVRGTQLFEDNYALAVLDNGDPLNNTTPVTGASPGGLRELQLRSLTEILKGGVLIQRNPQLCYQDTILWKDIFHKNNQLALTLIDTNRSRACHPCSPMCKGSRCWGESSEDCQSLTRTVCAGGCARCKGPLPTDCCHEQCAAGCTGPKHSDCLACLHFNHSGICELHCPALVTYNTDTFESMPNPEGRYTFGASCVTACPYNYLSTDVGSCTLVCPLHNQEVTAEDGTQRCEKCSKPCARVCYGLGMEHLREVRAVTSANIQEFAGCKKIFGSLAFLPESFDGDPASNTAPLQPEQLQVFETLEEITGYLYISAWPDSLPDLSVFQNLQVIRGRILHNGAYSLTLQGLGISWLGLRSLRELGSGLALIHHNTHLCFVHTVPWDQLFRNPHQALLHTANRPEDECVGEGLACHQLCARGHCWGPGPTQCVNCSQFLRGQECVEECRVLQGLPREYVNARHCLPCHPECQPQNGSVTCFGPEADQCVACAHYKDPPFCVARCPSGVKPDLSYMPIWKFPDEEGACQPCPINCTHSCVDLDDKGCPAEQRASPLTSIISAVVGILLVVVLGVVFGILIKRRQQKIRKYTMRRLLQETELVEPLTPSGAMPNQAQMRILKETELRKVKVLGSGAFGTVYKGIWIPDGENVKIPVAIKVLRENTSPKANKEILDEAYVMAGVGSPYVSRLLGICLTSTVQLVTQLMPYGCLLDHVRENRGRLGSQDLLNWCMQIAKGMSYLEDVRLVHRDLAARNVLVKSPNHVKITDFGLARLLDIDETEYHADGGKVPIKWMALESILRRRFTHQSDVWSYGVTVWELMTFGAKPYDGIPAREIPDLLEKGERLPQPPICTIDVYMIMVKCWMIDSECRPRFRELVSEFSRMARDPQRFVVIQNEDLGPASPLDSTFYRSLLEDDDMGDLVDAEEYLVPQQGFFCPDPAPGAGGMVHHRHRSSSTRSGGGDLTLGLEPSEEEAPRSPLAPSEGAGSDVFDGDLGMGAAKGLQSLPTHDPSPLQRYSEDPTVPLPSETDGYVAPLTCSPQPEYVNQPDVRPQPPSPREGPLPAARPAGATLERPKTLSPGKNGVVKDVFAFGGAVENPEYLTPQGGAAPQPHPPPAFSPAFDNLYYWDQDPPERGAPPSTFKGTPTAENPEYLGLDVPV
Briefly: Enzyme inhibitory activity on HER2 (time resolution fluorescence, biotinylated poly-Glu-Tyr substrate). Type of test: biochemical. The method, boiled down:
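Insect-cell-expressed HER2 (1000 ng/ml working stock) with biotinylated poly-Glu-Tyr (4:1; 3.125 μg/ml stock) and ATP (290 μM solution) in TBS with MgCl2, MnCl2, Na3VO4 and BSA, 60 min at room temperature. 10-point 4-fold dilutions from a 1 mM top solution. Phosphotyrosine detected by TR-FRET with Eu-antibody and streptavidin-XL.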

[2] abbreviates: day 5 (start of administration, grouping), 20 mg/kg administrated group, oral, N=6.
The mark [3] stands for this setting: day 5 (start of administration, grouping), 80 mg/kg administrated group, oral, N=6.
Where [4] appears, read: day 20, 20 mg/kg orally for 15 consecutive days from day 5.
The mark [5] stands for this setting: day 20, 80 mg/kg orally for 15 consecutive days from day 5.
The mark [6] stands for this setting: EGFR purified from insect cell expression system, ATP solution 125 μM, room temperature, 60 minutes.
[7] abbreviates: HER2 purified from insect cell expression system, ATP solution 290 μM, room temperature, 60 minutes.
[8] abbreviates: enzyme reaction at room temperature for 60 minutes.

T1 sequence (P00533 25-1210): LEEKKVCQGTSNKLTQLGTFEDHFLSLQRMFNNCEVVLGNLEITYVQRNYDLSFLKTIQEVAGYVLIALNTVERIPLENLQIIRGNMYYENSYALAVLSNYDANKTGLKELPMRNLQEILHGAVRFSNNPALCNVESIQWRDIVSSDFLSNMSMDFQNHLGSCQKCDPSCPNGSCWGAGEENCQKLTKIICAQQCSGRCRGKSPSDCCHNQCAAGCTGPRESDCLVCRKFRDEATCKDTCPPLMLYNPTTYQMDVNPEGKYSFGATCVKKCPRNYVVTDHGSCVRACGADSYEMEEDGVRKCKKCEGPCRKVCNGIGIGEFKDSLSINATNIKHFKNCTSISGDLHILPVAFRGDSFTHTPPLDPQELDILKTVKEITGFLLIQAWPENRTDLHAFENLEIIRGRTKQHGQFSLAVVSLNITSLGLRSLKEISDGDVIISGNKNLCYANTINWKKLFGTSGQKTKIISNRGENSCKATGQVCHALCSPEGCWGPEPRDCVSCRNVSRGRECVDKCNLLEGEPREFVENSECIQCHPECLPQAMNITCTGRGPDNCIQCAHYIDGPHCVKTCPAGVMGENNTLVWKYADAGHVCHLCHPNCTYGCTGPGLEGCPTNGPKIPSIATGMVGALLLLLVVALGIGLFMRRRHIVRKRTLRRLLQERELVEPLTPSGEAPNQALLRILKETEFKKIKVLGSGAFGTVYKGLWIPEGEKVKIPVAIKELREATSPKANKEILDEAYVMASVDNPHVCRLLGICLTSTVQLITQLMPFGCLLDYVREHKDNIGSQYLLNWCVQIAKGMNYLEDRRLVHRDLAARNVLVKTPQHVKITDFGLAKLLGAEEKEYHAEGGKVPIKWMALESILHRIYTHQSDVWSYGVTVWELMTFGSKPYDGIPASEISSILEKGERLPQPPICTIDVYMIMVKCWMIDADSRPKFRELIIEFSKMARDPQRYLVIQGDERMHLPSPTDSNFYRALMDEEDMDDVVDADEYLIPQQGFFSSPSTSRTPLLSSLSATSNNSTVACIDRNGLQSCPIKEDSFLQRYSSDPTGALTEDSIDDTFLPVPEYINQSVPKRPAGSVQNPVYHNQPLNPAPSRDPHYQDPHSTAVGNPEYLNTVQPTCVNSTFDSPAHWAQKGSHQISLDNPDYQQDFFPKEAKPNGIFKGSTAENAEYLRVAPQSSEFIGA

For the compound `CC#C/C(=N\OCCN1CCCC1)c1ccc2ncnc(Nc3ccc(OCc4cccc(F)c4)c(Cl)c3)c2c1` [VIII-11], the IC50 was determined as 26 nM in the test on BT-474 (Homo sapiens, BT-474, 72 h); 43 nM on EGFR (setting [6]); 45 nM at HER2 (setting [7]). In addition, the “Mean of tumor size” value was determined as 197 mm^3 in test [1] (setting [2]), 197 mm^3 in test [1] (setting [3]), 356 mm^3 in test [1] (setting [4]) and 193 mm^3 in test [1] (setting [5]). Besides, the “T/C % (ratio of average tumor size, compound-administered group vs control group)” value was determined as 54% in test [1] (setting [4]) and 29% in test [1] (setting [5]).
On to `CC#C/C(=N\OCCN(C)CCO)c1ccc2ncnc(Nc3ccc(OCc4cccc(F)c4)c(Cl)c3)c2c1.Cl.Cl` [VIII-66], for which the IC50 in the test with BT-474 worked out at 8 nM; against EGFR (setting [6]), 27 nM; against HER2 (setting [7]), 43 nM. Besides, the “Mean of tumor size” value in test [1] (setting [2]) came out at 134 mm^3; in test [1] (setting [3]) it was 150 mm^3; in test [1] (setting [4]), 154 mm^3; in test [1] (setting [5]), 17 mm^3. For the same compound, the entries for the “T/C % (ratio of average tumor size, compound-administered group vs control group)” value in test [1] (setting [4]) and in test [1] (setting [5]) were 32% and 4%, respectively.
Consider `CC#C/C(=N\OC[C@@H]1C[C@H](O)CN1)c1ccc2ncnc(Nc3ccc4c(cnn4Cc4cccc(F)c4)c3)c2c1` [VIII-194], for which the IC50 in the test on BT-474 stood at 25 nM; against EGFR (setting [8]), 8.6 nM; on HER2 (setting [8]) it was 13 nM.
`CC#C/C(=N\OCCN1CCOCC1)c1ccc2ncnc(Nc3ccc4c(cnn4Cc4cccc(F)c4)c3)c2c1` [VIII-195]: the IC50 with BT-474 (Homo sapiens, BT-474, 72 h) worked out at 29 nM; against EGFR (setting [8]), 45 nM; against HER2 (setting [8]), 43 nM.
On to `CC#C/C(=N\OCCN1CCNC(=O)C1)c1ccc2ncnc(Nc3ccc4c(cnn4Cc4cccc(F)c4)c3)c2c1` [VIII-196], for which the IC50 came to 28 nM in the test with BT-474 (Homo sapiens, BT-474, 72 h); 11 nM against EGFR (setting [8]); 20 nM against HER2 (setting [8]).
On the same counts, the results for `CC#C/C(=N\OC[C@@H]1COCCN1)c1ccc2ncnc(Nc3ccc4c(cnn4Cc4cccc(F)c4)c3)c2c1` [VIII-197] are 14 nM, 9 nM and 21 nM.
On the same counts, the results for `CC#CC(=NOCC1CNCCN1)c1ccc2ncnc(Nc3ccc4c(cnn4Cc4cccc(F)c4)c3)c2c1` (stereo not drawn) [VIII-198] are 10 nM, 3.6 nM and 4.6 nM.
For the compound `CNCCO/N=C(\C#CCOC)c1ccc2ncnc(Nc3ccc4c(cnn4Cc4cccc(F)c4)c3)c2c1` [VIII-199], the IC50 was determined as 33 nM with BT-474 (Homo sapiens, BT-474, 72 h); 6.3 nM against EGFR (setting [8]); 5.2 nM against HER2 (setting [8]).
Take `CC#C/C(=N\OC[C@@H](COC)NC)c1ccc2ncnc(Nc3ccc(S(=O)(=O)c4ccccc4)cc3)c2c1` [VIII-205]: the IC50 in the test on BT-474 (Homo sapiens, BT-474, 72 h) is 31 nM; on EGFR (setting [8]) it was 17 nM; against HER2 (setting [8]), 13 nM.
Turning to `CC#C/C(=N\OC[C@@H]1COCCN1)c1ccc2ncnc(Nc3ccc(S(=O)(=O)c4ccccc4)cc3)c2c1` [VIII-207], the IC50 in the test on BT-474 (Homo sapiens, BT-474, 72 h) was found to be 68 nM; against EGFR (setting [8]), 21 nM; on HER2 (setting [8]) it was 17 nM.
For the compound `CNCCO/N=C(\C#CCOC)c1ccc2ncnc(Nc3ccc(S(=O)(=O)c4ccccc4)cc3)c2c1` [VIII-208], the IC50 amounted to 27 nM in the test with BT-474 (Homo sapiens, BT-474, 72 h); 28 nM against EGFR (setting [8]); 23 nM against HER2 (setting [8]).
Taken in the same sequence, the figures for `COCC#C/C(=N\OC[C@@H]1COCCN1)c1ccc2ncnc(Nc3ccc(S(=O)(=O)c4ccccc4)cc3)c2c1` [VIII-209] were 19 nM, 38 nM and 30 nM.
Regarding `CC#C/C(=N\OCCNC)c1ccc2ncnc(Nc3ccc(Oc4ccc(C)nc4)c(C)c3)c2c1` [VIII-210], the IC50 came to 31 nM in the test on BT-474 (Homo sapiens, BT-474, 72 h); 42 nM at EGFR (setting [8]); 14 nM on HER2 (setting [8]).
On to `CC#C/C(=N\OCCNC)c1ccc2ncnc(Nc3ccc(COc4cccc(F)c4)c(Cl)c3)c2c1` [VIII-211], for which the IC50 amounted to 16 nM in the test with BT-474 (Homo sapiens, BT-474, 72 h); 23 nM on EGFR (setting [8]); 18 nM against HER2 (setting [8]).
With `CC#C/C(=N\OCCNC)c1ccc2ncnc(Nc3ccc(Sc4ccccc4)cc3)c2c1` [VIII-213], the IC50 stood at 33 nM in the test with BT-474 (Homo sapiens, BT-474, 72 h); 18 nM at EGFR (setting [8]); 25 nM against HER2 (setting [8]).
For `CC#C/C(=N\OCCNC)c1ccc2ncnc(Nc3ccc(S(=O)(=O)c4ccccc4)cc3)c2c1` [VIII-214], the IC50 in the test with BT-474 (Homo sapiens, BT-474, 72 h) worked out at 25 nM; on EGFR (setting [8]), 4.5 nM; against HER2 (setting [8]) it was 3.3 nM.
In the case of `CC#C/C(=N\OCCNC)c1ccc2ncnc(Nc3ccc(OCc4cccnc4)c(Cl)c3)c2c1` [VIII-216], the IC50 in the test on BT-474 (Homo sapiens, BT-474, 72 h) was found to be 32 nM; on EGFR (setting [8]), 22 nM; on HER2 (setting [8]), 7 nM.
In the case of `CC#C/C(=N\OCC1COCCN1)c1ccc2ncnc(Nc3ccc(Oc4ccc(C)nc4)c(C)c3)c2c1` (stereo not drawn) [VIII-218], the IC50 with BT-474 (Homo sapiens, BT-474, 72 h) amounted to 41 nM; against EGFR (setting [8]), 76 nM; on HER2 (setting [8]), 22 nM.
Consider `CC#C/C(=N\OCC1COCCN1)c1ccc2ncnc(Nc3ccc(S(=O)(=O)c4ccccc4)cc3)c2c1` (stereo not drawn) [VIII-219], for which the IC50 with BT-474 (Homo sapiens, BT-474, 72 h) stood at 45 nM; against EGFR (setting [8]), 26 nM; on HER2 (setting [8]), 20 nM.
Taken in the same sequence, the figures for `CC#C/C(=N\OCC1COCCN1)c1ccc2ncnc(Nc3ccc(COc4cccc(F)c4)c(Cl)c3)c2c1` (stereo not drawn) [VIII-220] were 23 nM, 263 nM and 449 nM.
As to `CC#C/C(=N\OCC1COCCN1)c1ccc2ncnc(Nc3ccc(COc4cccc(F)c4)c(Cl)c3)c2c1` (stereo not drawn) [VIII-221], the IC50 turned out to be 15 nM in the test on BT-474, 143 nM against EGFR (setting [8]) and 168 nM on HER2 (setting [8]).
For the compound `CC#C/C(=N\OCC(N)=O)c1ccc2ncnc(Nc3ccc(OCc4cccc(F)c4)c(Cl)c3)c2c1` [VIII-223], the IC50 was 6 nM in the test on BT-474 (Homo sapiens, BT-474, 72 h); 253 nM against EGFR (setting [8]); 217 nM against HER2 (setting [8]).
With `CC#C/C(=N\OCC(=O)NCCO)c1ccc2ncnc(Nc3ccc(OCc4cccc(F)c4)c(Cl)c3)c2c1` [VIII-224], the IC50 amounted to 1.2 nM in the test with BT-474 (Homo sapiens, BT-474, 72 h); 122 nM on EGFR (setting [8]); 118 nM against HER2 (setting [8]).
Taken in the same sequence, the figures for `CC#C/C(=N\OCC(=O)NCCOS(C)(=O)=O)c1ccc2ncnc(Nc3ccc(OCc4cccc(F)c4)c(Cl)c3)c2c1` [VIII-225] were 7 nM, 47 nM and 70 nM.
For the compound `CC#C/C(=N\OCC(=O)NCCN(C)C)c1ccc2ncnc(Nc3ccc(OCc4cccc(F)c4)c(Cl)c3)c2c1` [VIII-226], the IC50 in the test on BT-474 (Homo sapiens, BT-474, 72 h) turned out to be 5 nM; against EGFR (setting [8]), 20 nM; on HER2 (setting [8]), 10 nM.
